Laboratory results as given in patent US20170334927A1 (Shanghai Sun-sail Pharmaceutical Science & Technology Co., …, priority 2014, published 2017).
Values after ≈ are worked out from the molar mass of the structure shown. Where a name gives a salt, the structure may show the parent alone.

Key:
[1] = system: Mycobacterium tuberculosis H37Rv; assay: Activity test for Mycobacterium tuberculosis (MIC, H37Rv); assay type: cell-based; conditions: for anti Mycobacterium tuberculosis activity (MIC against H37Rv), times of that of PA-824: relative to PA-824; for anti Mycobacterium tuberculosis activity (MIC against H37Rv), times of that of ethambutol: relative to ethambutol; for MIC: Mycobacterium tuberculosis H37Rv, liquid medium, 37° C., read-out: Minimum inhibitory concentration against H37Rv
Protocol: The tested strain H37Rv was transferred to liquid medium and cultured for 2 weeks at 37° C.; a small amount of the cultured bacterial solution was pipetted and placed in 4 mL of liquid medium; 10-20 sterile glass beads with a diameter of 2-3 mm were added; the mixture was shaken for 20-30 s and left to sediment for 10-20 min; the supernatant of the bacterial suspension was pipetted and adjusted to a turbidity of 1 MCF (equivalent to 1×10^7 CFU/mL) with the liquid medium for use. Each drug was dissolved to 1 mg/mL with an appropriate amount of DMSO and filtered with a 0.22 μm filter. Then, the solution was diluted to a desired experimental concentration with the liquid medium. The final concentrations of the tested drugs were set as follows: 0.001 μg/mL, 0.002 μg/mL, 0.0039 μg/mL, 0.0078 μg/mL, […], 0.03125 μg/mL, 0.0625 μg/mL, 0.125 μg/mL, 0.25 μg/mL, 0.5 μg/mL and 1 μg/mL, a total of 11 concentration gradients. 100 μL of each of the above-mentioned drug solutions was added to a 96-well microwell plate, then 100 μL bacterial solution with a concentration of 1 mg/mL was added to allow the drug concentration to reach the final set concentration, and cultured at 37° C. Three groups in parallel were set for each drug dilution with inoculation amounts of 100%, 10% and 1%, respectively, while no drug was added to the control group.

hERG potassium channel = target: T1, hERG potassium channel (Homo sapiens, UniProt Q12809); assay: Inhibitory effect on hERG potassium ion channel (whole cell patch clamp, HEK-293 cells); assay type: cell-based; conditions: hERG potassium current, room temperature, read-out: IC50 (inhibition on hERG)
T1 construct: host or cells: HEK-293
Protocol: hERG potassium channel currents were recorded with the whole cell patch clamp technique at room temperature in HEK-293 cells (Creacell™, France) expressing hERG stably. A glass microelectrode with a tip resistance of about 1-4 MΩ was connected to the Axon 200A patch clamp amplifier. Clamp voltage and data record were controlled by a computer via the Axon DigiData 1322A A/D converter with the clampex 9.2 software; the cells were clamped at −80 mV; and the step voltage for inducing the hERG potassium current (IhERG) was changed from −80 mV to +20 mV by providing a 2 s depolarization voltage, repolarized to −40 mV and returned to −80 mV after 4 s. This voltage step was given respectively before and after administration to induce the hERG potassium current.
Data analysis and processing were performed with the PatchMaster, GraphPad Prism 5 and Excel softwares. The degree of inhibition of different compound concentrations on the hERG potassium current (hERG tail current peak induced at −50 mV) was calculated using the following formula:
Fractional block %=[1−(I/Io)]×100%
in the formula, Fractional block represents the percent inhibition of a compound on the hERG potassium current, and I and Io represent the magnitudes of the hERG potassium current […], respectively.
The IC50 of a compound was calculated using the following equation by fitting: […]
in the equation, I and Io represent the magnitudes of the hERG potassium current […], respectively; [C] is the compound concentration, and n is the Hill coefficient.

physchem = assay type: physicochemical; conditions: for Solubility: 3 days, pH 1.2; for solubility at 3 days: pH 1.2, simulated gastric fluid, thermodynamic from solid
Protocol: 3-5 mg of compound to be tested was added to 0.5 mL of aqueous HCl solution (pH=1.2) and the mixture was shaken for three days on a shaker; the sample was centrifuged for 5 min at 10,000 rpm in a centrifuge; a volumetric flask (50 mL) was loaded with 2 mL of supernatant and water was added to a volume at the graduation mark to prepare a sample solution; and 2.6 mg of sample was precisely weighed into a volumetric flask (50 mL), an appropriate amount of methanol was added to dissolve the sample, and water was added to a volume at the graduation mark and shaken well to give a control sample solution. 20 μL of sample solution and control sample solution were each injected, and tested by liquid chromatography. The solubility was calculated as follows:
Solubility (mg/mL)=C (control)*25*A (sample)/A (control)
C (control): concentration of the control sample
A (sample): peak area of the liquid chromatogram of the sample solution
A (control): peak area of the liquid chromatogram of the control sample solution

[2] = Drug metabolism test (pharmacokinetics, oral, mice); assay type: in vivo, ICR mice; conditions: 10 mg/kg; for AUC(0-inf) / AUC(0-t) / Cmax / MRT / Tmax / half-life: male, ICR, mouse, po, orally (intragastric), plasma; for pharmacokinetic properties (in words): orally, judgement on Table 6
Protocol: 18 healthy male ICR mice with a body weight of 18-22 g were administered drugs by intragastric administration, with an administration dose of 10 mg/kg and an administration volume of 10 mL/kg, respectively. These mice were fasted for 12 h before the test and had free access to drinking water. These mice were fed 2 h after administration uniformly. 0.3 mL of blood was taken from the postocular venous plexus of a mouse at the set time points, placed in a heparinized test tube and centrifuged for 10 min at 3000 rpm; and plasma was separated and frozen in a refrigerator at −20° C. When measured, the sample was treated through the method for treating the plasma sample, and the drug concentration in plasma was determined by LC-MS/MS and the pharmacokinetic parameters of the drug were calculated.

[3] = in vivo; cited from earlier work

T1 sequence (Q12809 whole entry): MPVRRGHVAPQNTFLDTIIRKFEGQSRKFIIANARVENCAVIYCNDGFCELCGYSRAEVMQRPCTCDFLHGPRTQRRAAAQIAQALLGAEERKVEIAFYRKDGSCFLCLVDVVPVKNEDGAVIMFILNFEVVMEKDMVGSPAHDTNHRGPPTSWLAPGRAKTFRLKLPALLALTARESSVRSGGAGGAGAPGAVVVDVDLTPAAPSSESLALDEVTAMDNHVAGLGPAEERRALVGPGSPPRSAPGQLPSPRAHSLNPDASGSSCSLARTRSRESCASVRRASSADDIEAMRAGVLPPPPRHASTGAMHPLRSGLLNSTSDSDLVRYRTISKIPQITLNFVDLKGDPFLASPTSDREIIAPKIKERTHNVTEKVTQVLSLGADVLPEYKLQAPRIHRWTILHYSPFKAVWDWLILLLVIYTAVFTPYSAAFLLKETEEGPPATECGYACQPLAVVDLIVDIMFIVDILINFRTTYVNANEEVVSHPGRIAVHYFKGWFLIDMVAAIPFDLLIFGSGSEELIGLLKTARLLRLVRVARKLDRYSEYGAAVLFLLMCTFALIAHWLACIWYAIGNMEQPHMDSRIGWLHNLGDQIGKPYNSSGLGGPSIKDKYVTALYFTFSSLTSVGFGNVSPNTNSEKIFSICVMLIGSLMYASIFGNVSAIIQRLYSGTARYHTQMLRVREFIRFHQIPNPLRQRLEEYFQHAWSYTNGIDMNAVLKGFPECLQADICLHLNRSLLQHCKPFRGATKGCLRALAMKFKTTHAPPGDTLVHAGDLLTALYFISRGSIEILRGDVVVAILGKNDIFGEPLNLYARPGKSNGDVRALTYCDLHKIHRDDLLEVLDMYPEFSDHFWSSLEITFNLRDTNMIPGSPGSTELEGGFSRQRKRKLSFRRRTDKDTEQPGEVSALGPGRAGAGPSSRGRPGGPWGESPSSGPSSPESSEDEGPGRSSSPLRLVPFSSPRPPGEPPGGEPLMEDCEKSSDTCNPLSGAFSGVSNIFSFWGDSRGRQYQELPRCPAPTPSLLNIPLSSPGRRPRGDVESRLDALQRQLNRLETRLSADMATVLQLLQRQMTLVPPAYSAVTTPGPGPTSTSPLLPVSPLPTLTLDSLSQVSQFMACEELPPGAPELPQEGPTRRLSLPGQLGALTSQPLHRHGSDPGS

Row | SMILES | melting point [°C] | anti Mycobacterium tuberculosis activity (MIC against H37Rv), times of that of PA-824 [1] [times] | anti Mycobacterium tuberculosis activity (MIC against H37Rv), times of that of ethambutol [1] [times] | MIC [1] [ng/mL] | IC50 (hERG potassium channel) [µM] | Solubility (physchem) [µg/mL] | solubility at 3 days (physchem) [µg/mL] | AUC(0-inf) [2] [ng·h/mL] | AUC(0-t) [2] [ng·h/mL] | Cmax [2] [ng/mL] | MRT [2] [h] | Tmax [2] [h] | half-life [2] [h] | pharmacokinetic properties (in words) [2] | oral bioavailability (in words, background) [3]
1 | CN(Cc1cnc(N2CCN(c3ccc(OC(F)(F)F)cc3)CC2)nc1)[C@@H]1COc2nc([N+](=O)[O-])cn2C1.O=C(O)/C=C/C(=O)O | 143 to 145 |  |  |  |  |  |  |  |  |  |  |  |  |  | 
2 | Cc1nc(N2CCN(c3ccc(OC(F)(F)F)cc3)CC2)ncc1CN[C@@H]1COc2nc([N+](=O)[O-])cn2C1 (as salt: methanesulfonate) [Compound 49, (S)-N-((4-methyl-2-(4-(4-(trifluoromethoxy)phenyl)piperazin-1-yl)pyrimidin-5-yl)methyl)-2-nitro-6,7-dihydro-5H-imidazo[2,1-b][1,3]oxazin-6-amine methanesulfonate] | 175 to 177 |  |  |  |  |  |  |  |  |  |  |  |  |  | 
3 | O=[N+]([O-])c1cn2c(n1)OC[C@@H](NCc1cnc(N3CCN(c4ccc(OC(F)(F)F)cc4)CC3)nc1)C2 [Compound 18] |  | 8 | 64 | 7.8 (≈ 0.015 µM) | 41.1 | 1532.1 (≈ 2940 µM) | > 1000 | 16700 | 16000 | 1470 | 7.11 | 2 | 5.29 |  | 
4 | CC1CN(c2ncc(CN[C@@H]3COc4nc([N+](=O)[O-])cn4C3)cn2)CCN1c1ccc(OC(F)(F)F)cc1 (stereo partly shown) [Compound 19] |  | 8 | 64 | 7.8 (≈ 0.0146 µM) | 38.3 | 1321.8 (≈ 2470 µM) | > 1000 | 16800 | 16300 | 1780 | 5.02 | 1.98 | 3.17 |  | 
5 | CC1CN(c2ccc(OC(F)(F)F)cc2)CCN1c1ncc(CN[C@@H]2COc3nc([N+](=O)[O-])cn3C2)cn1 (stereo partly drawn) [Compound 20, (3S)—N-((6-(2-methyl-4-(4-(trifluoromethoxy)phenyl)piperazin-1-yl)pyrimidin-3-yl)methyl)-7-nitro-3,4-dihydro-2H-imidazo[2,1-b][1,3]oxazin-3-amine] |  | 32 | 256 | 1.95 (≈ 0.00365 µM) |  | 1023.8 (≈ 1920 µM) | > 1000 | 21600 | 21500 | 2100 | 4.82 | 2.33 | 2.98 | excellent | 
6 | N#CC1(c2ccc(OC(F)(F)F)cc2)CCN(c2ncc(CN[C@@H]3COc4nc([N+](=O)[O-])cn4C3)cn2)CC1 [Compound 24, (S)-1-(5-(((7-nitro-3,4-dihydro-2H-imidazo[2,1-b][1,3]oxazin-3-yl)amino)methyl)pyrimidin-2-yl)-4-(4-(trifluoromethoxy)phenyl)piperidine-4-carbonitrile] |  | 16 | 128 | 3.9 (≈ 0.00716 µM) |  |  | 782 (≈ 1440 µM) | 18300 | 18200 | 1980 | 4.45 | 2.17 | 3.52 |  | 
7 | O=[N+]([O-])c1cn2c(n1)OC[C@@H](NCc1cnc(N3CCN(c4ccc(C(F)(F)F)cc4)CC3)nc1)C2 [Compound 31, (S)-2-nitro-N-((2-(4-(4-(trifluoromethyl)phenyl)piperazin-1-yl)pyrimidin-5-yl)methyl)-6,7-dihydro-5H-imidazo[2,1-b][1,3]oxazin-6-amine] |  | 8 | 64 | 7.8 (≈ 0.0155 µM) | 39.5 | 1354.8 (≈ 2690 µM) | > 1000 | 22500 | 22400 | 2140 | 4.18 | 1.97 | 3.05 | excellent | 
8 | Cc1nc(N2CCN(c3ccc(OC(F)(F)F)cc3)CC2)ncc1CN[C@@H]1COc2nc([N+](=O)[O-])cn2C1 [Compound 36] |  | 8 | 64 | 7.8 (≈ 0.0146 µM) |  | 1123.7 (≈ 2100 µM) | > 1000 | 16700 | 16100 | 2020 | 4.71 | 1.87 | 2.87 |  | 
9 | C[C@]1(COc2ccc(N3CCC(Oc4ccc(OC(F)(F)F)cc4)CC3)cc2)Cn2cc([N+](=O)[O-])nc2O1 [OPC-67683] |  |  |  |  |  |  |  |  |  |  |  |  |  |  | very low
10 | O=[N+]([O-])c1cn2c(n1)OC[C@@H](OCc1ccc(OC(F)(F)F)cc1)C2 [PA-824, reference compound] |  |  |  | 62.5 (≈ 0.174 µM) |  |  | 17 (≈ 47.3 µM) |  |  |  |  |  |  |  | low
